Results on two substances are retold here after US12071624B2, “Antisense oligonucleotide targeting ARL4C molecule, and nucleic acid drug using antisense oligonucleotide” (OSAKA UNIVERSITY, priority 2018, dated 2024).

[AmNA] = 2',4'-bridged nucleic acid with N-methyl amide bridge (AmNA); d = 2'-deoxy (DNA)

The test system of data set [1] is nuclear localization of YAP in HLE cells. Kind of data set: Anti-YAP/TAZ antibody staining in HLE cells. The data set is classed as cell-based. The settings on record: HLE cells transfected at 25 nM. The method, then:
(§1) HLE cells, HCT116 cells, and A549 cells were transfected with 25 to 50 nM ASO and 10 to 20 nM siRNA using Lipofectamine 3000 (Invitrogen, Carlsbad, CA, USA) or RNAiMAX (Invitrogen). Transfected cells were used in the experiments 36 to 48 hours after the end of the transfection.
HLE cells or A549 cells were transfected with control ASO, ASO-1316, and ASO-3223 at 25 nM, and were stained with an anti-YAP/TAZ antibody; the results are shown in (c) of FIG. 6.

For a further data set, the system named is PIK3CD mRNA. The experiment in a line: PIK3CD mRNA amount by real-time PCR in HLE cells. The data set is classed as cell-based, human. The settings on record: HLE cells transfected with ASO at 25 nM. How it is done:
as §1
Cell migration assays and quantitative real-time PCR analyses were performed according to the methods reported by Fujii S et al. (Oncogene 2015; 34: 4834-44).
HLE cells were treated with 25 μM SecinH3 (inhibitor of Arf nucleotide-binding site opener (ARNO)) or 50 μM NSC23766 (Rac inhibitor), and the amount of PIK3CD mRNA was measured by real-time PCR; the results are shown in (c) of FIG. 5.
HLE cells were transfected with control ASO, ASO-1316, and ASO-3223 at 25 nM, and the PIK3CD mRNA amount was measured by real-time PCR; the results are shown in (g) of FIG. 5. In addition, an anti-phosphorylated AKT (pAKT S473) antibody and an anti-AKT antibody as probes were caused to act on cell lysates of HLE cells transfected with control ASO, ASO-1316, and ASO-3223; the results are shown in (h) of FIG. 5.
(In general: In qPCR the cycle at which signal appears reflects the starting amount.)

Another data set deals with HCT116/Luc cells. The experiment in a line: Metastatic tumor model, HCT116/Luc cells transplanted into spleen with liver metastasis. Format: in vivo, mouse. How it is done: HCT116/Luc cells (2.5×10^5 cells) were suspended in 100 μl of phosphate buffer solution (PBS), and were injected into the spleens of 8-week-old male nude mice (BALB/cAJcl-nu/nu, CLEA Japan, Inc.) under anesthesia. After 19 days had elapsed since the transplantation, ASO (50 μg/body; about 2.5 mg/kg) was subcutaneously administered twice a week. Mice were euthanized 47 days after the HCT116/Luc cell transplantation and were subjected to histological analysis.
Tumor growth analysis was performed by recording bioluminescence images at a frequency of once a week, in the following manner: VivoGlo luciferin (30 mg/ml) was administered intraperitoneally, and 10 minutes after the administration of VivoGlo luciferin, recording was carried out using an IVIS imaging system (Xenogen Corp., Alameda, CA, USA).
In a metastatic tumor model in which HCT116 cells were transplanted into the spleen and the tumor was caused to metastasize to the liver, influences of the subcutaneous administration of ARL4C ASO (ASO-1316 and ASO-3223) on the liver tumor was examined.
In an experiment in the metastatic tumor model, HCT116/Luc cells were injected into the spleens (day 0), luciferase signals were detected in the livers 19 days after the injection; on and after this day, control ASO, ASO-1316, and ASO-3223 were subcutaneously administered at a frequency of twice a week. When 19, 35 and 47 days had elapsed, the fluorescence of luciferase emitted from the liver tumors was observed, and when 47 days had elapsed, fluorescence intensities of luciferase emitted from the liver tumors were quantified with software of IVIS/Kodak; the results are shown in (a) of FIG. 10. […] In addition, when 47 days had elapsed since the transplantation of HCT116/Luc cells, the tumors formed in the livers were observed, and the tumors formed in the livers were immunostained with an anti-ARL4C antibody; the results are shown in (b) of FIG. 10. The tumors formed in the livers were immunostained with an anti-Ki-67 antibody when 47 days had elapsed since the transplantation of HCT116/Luc cells; the results are shown in (c) of FIG. 10.

The next data set relates to HLE cells. Kind of data set: Cell migration assay in HLE/GFP and HLE/ARL4C-GFP cells. Format: cell-based. The settings on record: HLE/GFP or HLE/ARL4C-GFP cells transfected at 25 nM.
Excerpt: HLE cells allowing for the stable expression of GFP (HLE/GFP cells), HLE cells allowing for the stable expression of ARL4c-GFP with GFP fused to the C-terminal side (HLE/ARL4C-GFP cells, i.e., cells in which ARL4C-GFP is transduced and stably expressed), HCT116 cells allowing for the stable expression of luciferase (HCT116/Luc cells), A549 cells allowing for the stable expression of luciferase (A549/Luc cells), and S2-CP8 cells allowing for the stable expression of luciferase (S2-CP8/Luc cells) were produced using lentivirus according to the method reported by Matsumoto S et al. (EMBO J 2014; 33: 702-18) and Fujii S et al. (Oncogene 2015; 34: 4834-44). In addition, ARL4C-GFP is ARL4C with GFP fused thereto.
as §1
Cell migration assays and quantitative real-time PCR analyses were performed according to the methods reported by Fujii S et al. (Oncogene 2015; 34: 4834-44). […]

For “ASO-3223: 19-mer ARL4C ASO of Table 1, SEQ ID NO 55 (antisense NNNGGTTACAGTATTTNNC; sugars from the 5' end [AmNA]3 d13 [AmNA]2 d1, backbone, methylation of C and the base at N not given here; further chemistry not fully specified)”, the “nuclear localization of YAP” value in data set [1] is “did not affect the nuclear localization of YAP”. Also, the “PIK3CD mRNA amount / PIK3CD expression” value in the data set on PIK3CD mRNA is “suppressing PIK3CD expression”. In addition, the “antitumor effect in the metastatic tumor model” value with HCT116/Luc cells (subcutaneous twice a week from day 19) is recorded as “did not exert an antitumor effect”. In addition, in the data set on HLE cells, the cell migration result is “suppress the migration of HLE cells”.

Consider “ASO-1316: 15-mer AmNA/phosphorothioate ASO targeting ARL4C, base sequence SEQ ID NO: 1 gcatacctcaggtaa; Table 1 SEQ ID NO 13 (antisense GCATACCTCAGGTAA; AmNA and phosphorothioate modified, pattern not given here)”, for which the “nuclear localization of YAP” value in data set [1] is given as “did not affect the nuclear localization of YAP”. Further, the “PIK3CD mRNA amount / PIK3CD expression” value in the data set on PIK3CD mRNA is listed as “suppressing PIK3CD expression”. The “growth of liver tumors (luciferase)” value in the data set with HCT116/Luc cells (50 μg/body subcutaneously twice a week from day 19, until day 47) was “the growth of the tumors until 47 days after the injection could be suppressed”. In the data set on HCT116/Luc cells (day 47), the “ARL4C expression level in liver tumor (immunostaining)” value was “decreased ARL4C expression levels” and the “number of Ki-67 positive cells in liver tumor” value is on record as “decreased numbers of Ki-67 positive cells”. Besides, the cell migration result in the data set with HLE cells is listed as “suppress the migration of HLE cells”.
